What was measured:
[1] = tested on: rat beta cells; assay: Beta cell DNA synthesis/proliferation by EdU (and BrdU) incorporation, incl. LOPAC screen; assay type: cell-based; settings: for effect on 6MP induced DNA-synthesis and increase in cell numbers: JSH-23 10 μM, Bay11-7085 5 μM
Procedure: (§1) On day 1, 9 and 15 of culture, total numbers of living beta cells per well were determined by semi-automatic cell count, after Hoechst 33342 (Ho) and propidium iodide (PI) staining. Numbers of living beta cells were obtained by subtracting the PI-positive cell numbers from the Ho-positive cell numbers, and correcting for the percent insulin-negative cells, as determined following insulin-immunofluorescence staining. They were expressed as percent of the numbers on day 1. Each condition was also evaluated for increases in the percentage of proliferating beta cells (incorporating the thymidine-analogue 5-ethynyl-2′-deoxyuridine, EdU; 100 μmol/l). To detect beta cells that underwent two successive cycles, cells were sequentially exposed to two different thymidine-analogs, first EdU from day 3 to 6, and then BrdU (100 μmol/l) from day 7 to 10, with a 24-hour label-free period in between. EdU-positive (EdU^+) nuclei were detected with the Click-iT Assay kit (Invitrogen), while BrdU-positive (BrdU^+) nuclei were identified with anti-BrdU antibody.
Freshly purified beta cells were cultured in control medium for 24 h prior to the addition of the LOPAC test compounds (day 1). The culture medium was refreshed on day 3 and the cells were then cultured further with 5-ethynyl-2′-deoxyuridine (EdU; 10 μM) up to day 6. Cell viability and percentage EdU incorporation were quantified after imaging and image analysis using the BD Pathway Bioimager, as described before (Assefa et al., 2014). To test the significance of compound effect on beta cell proliferation, average Z-score for each compound was calculated and a cut-off for potential positive hits was set at a Z-score of greater than three standard deviations. Thus, a compound is considered a hit only if it increases the percent EdU incorporation to above three standard deviation of the plate-averaged percent EdU incorporation.
(§2) Sorted beta cells were seeded in 384-well or 6-well plates coated with 804G matrix, and kept in culture for up to 15 days at 37° C. 5% CO2 using Ham F10 supplemented with 1 mM L-glutamine, 0.1 mg/ml streptomycin, 0.075 mg/ml penicillin, 50 μM of isobutyl-1-methylxanthine (IBMX) at 10 mM D-glucose with and without synthetic GCs (6 methyl-prednisolone (6MP), dexamethasone (DEX), GR-modulators (compound A (CPA), mifepristone (MIF), and NFκB inhibitors (JSH-23 en Bay11-7085). Total cell number and beta cell viability was evaluated after incubation with Hoechst 33342 and propidium iodide. All chemicals were from Sigma Life Sciences or Merck. Quantification of cell numbers and analysis of beta-cell viability was done using the Pathway Bioimager (BD Biosciences) and using IPlab and Attovision software for background subtraction as described prior (Assefa et al., 2014). Replicating beta cells were quantified after 24 or 72 hrs incubation with 5-ethynyl-2′-deoxyuridine (EdU, a thymidine analog) using the ClickIT EDU Alexa Fluor assay (Invitrogen). EdU-positive cells were expressed as percentage of total cell number.

[2] = tested on: rat beta cells; assay: Number of living beta cells in culture (Hoechst 33342/propidium iodide whole-well imaging counts; expansion assay); assay type: cell-based; settings: for Number of Living Cells on Day 15 (% of Day 1): control 101 ± 7; for concentration giving maximal inhibition / prevention of DEX-stimulated increase of beta cell numbers: with 0.01 μM DEX, d1 to d15
Procedure: Beta cells were FACS-purified from islet-cell enriched suspensions (Pipeleers et al., 1985) prepared from neonatal (2-3 days-old) and adolescent or adult (8 or 40-week-old, male) Wistar rats (Janvier Bioservices, France); their purity was, respectively 70-75% and over 90%. Sorted cells were counted in a hemocytometer, seeded (day 0) and cultured for up to 15 days in serum-free Ham's-F10 medium at 5, 10 or 20 mmol/l glucose, supplemented with 2 mmol/l L-glutamine, 50 μM 3-isobutyl-1-methylxanthine, 0.5% Albumax-I, penicillin (100 U/ml) and streptomycin (0.1 mg/ml). The 10 mmol/l glucose condition is known to maintain beta cell survival over 9-days (Ling et al., 1994; Ling and Pipeleers, 1994). Medium and cells were retrieved after selected culture periods and assayed for insulin content; data were expressed as a function of the number of living beta cells that was determined in parallel wells.
as §1
Absolute number of cells was determined by whole-well imaging using the BD-PathwayBioimager855 (BD-Biosciences). IPLab and AttoVision software packages (BD-Biosciences) were used for image background subtraction, segmentation and quantification.
Experimental procedures for isolation of beta cells from neonatal (2-3 days old) and adult (8 or 40 week old, male) Wistar rats (Janvier Bioservices, France) and analysis of their number, viability and proliferation activity in culture have been described before (Assefa et al., 2014). Sorted beta cells were seeded in 804G matrix-coated plates (designated as day 0) and the numbers and viability of seeded cells at the start of all experiments were determined on day 1 (24 h after seeding). The cells were cultured in control medium, which is a serum-free Ham's F10 medium supplemented with 2 mM L-glutamine, 50 μM 3-isobutyl-1-methylxanthine, 0.5% Albumax I, penicillin (100 U/ml), streptomycin (0.1 mg/ml) and, unless indicated otherwise, 10 mM glucose.
as §2, with “2014).” for “2014). Replicating beta cells were quantified after 24 or 72 hrs incubation with 5-ethynyl-2′-deoxyuridine (EdU, a thymidine analog) using the ClickIT EDU Alexa Fluor assay (Invitrogen). EdU-positive cells were expressed as percentage of total cell number.”

[3] = tested on: GR trans-repression and trans-activation targets, cell cycle genes and beta cell phenotype markers; assay: Q-PCR of mRNA levels in cultured beta cells; assay type: cell-based, rat; settings: for effect on ICAM1 mRNA levels: NFkB-inhibitors, relative to vehicle control
[4] = 9 days culture, 1 μM 6MP, 1 μM MIF, 0.5 μM CPA, vehicle = 1.0
[5] = control medium + compound 1 μM, 15 days

Molecule: COC(=O)C1=C(C)NC(C)=C([N+](=O)[O-])C1c1ccccc1C(F)(F)F (racemic) [(±)-Bay K 8644]
- hit status in LOPAC screen based on Z-scores ([1]; 1 μM, adult rat beta cells): potential inducers of beta cell proliferation

Molecule: C[C@]12CCC(=O)C=C1CC[C@@H]1[C@@H]2[C@@H](O)C[C@]2(C=O)[C@@H](C(=O)CO)CC[C@@H]12 [Aldosterone, aldosterone]
- Number of Living Cells on Day 15 (% of Day 1) ([2]; control medium + compound 0.1 μM, 15 days): 112 ± 5 % of Day 1

Molecule: CC(C)(C)c1ccc(S(=O)(=O)/C=C/C#N)cc1 [Bay11-7085]
- effect on ICAM1 mRNA levels [3]: suppressing
- effect on 6MP induced DNA-synthesis and increase in cell numbers [1]: does not inhibit

Molecule: CNCC(Cl)c1ccc(OC(C)=O)cc1.Cl (stereo not drawn) [CPA]
- CDK4 mRNA level (ΔΔCt values relative to basal vehicle control) [3, 4]: 1.1 ± 0.2
- CXCL11 mRNA level (ΔΔCt values relative to basal vehicle control) [3, 4]: 1.1 ± 0.3
- Cyclin B1 mRNA level (ΔΔCt values relative to basal vehicle control) [3, 4]: 0.8 ± 0.4
- Cyclin B2 mRNA level (ΔΔCt values relative to basal vehicle control) [3, 4]: 0.5 ± 0.1^2
- Cyclin E1 mRNA level (ΔΔCt values relative to basal vehicle control) [3, 4]: 1.0 ± 0.1
- CyclinD1 mRNA level (ΔΔCt values relative to basal vehicle control) [3, 4]: 0.7 ± 0.1^1
- DLK1 mRNA level (ΔΔCt values relative to basal vehicle control) [3, 4]: 1.4 ± 0.4
- FKBP4 mRNA level (ΔΔCt values relative to basal vehicle control) [3, 4]: 0.9 ± 0.2
- FKBP5 mRNA level (ΔΔCt values relative to basal vehicle control) [3, 4]: 1.3 ± 0.1
- GDF11 mRNA level (ΔΔCt values relative to basal vehicle control) [3, 4]: 0.7 ± 0.1
- ICAM1 mRNA level (ΔΔCt values relative to basal vehicle control) [3, 4]: 0.3 ± 0.1^3
- MKP1 mRNA level (ΔΔCt values relative to basal vehicle control) [3, 4]: 2.7 ± 1.1
- MafA mRNA level (ΔΔCt values relative to basal vehicle control) [3, 4]: 0.4 ± 0.1^3
- MafB mRNA level (ΔΔCt values relative to basal vehicle control) [3, 4]: 1.4 ± 0.5
- NNAT mRNA level (ΔΔCt values relative to basal vehicle control) [3, 4]: 0.6 ± 0.1
- NPY mRNA level (ΔΔCt values relative to basal vehicle control) [3, 4]: 1.1 ± 0.3
- NR3C1 mRNA level (ΔΔCt values relative to basal vehicle control) [3, 4]: 1.0 ± 0.1
- Pdx1 mRNA level (ΔΔCt values relative to basal vehicle control) [3, 4]: 0.8 ± 0.1
- TRH mRNA level (ΔΔCt values relative to basal vehicle control) [3, 4]: 1.2 ± 0.6
- change of beta cell numbers between day 1 and 15 ([2]; 6MP 1 μM, DEX 0.01 μM, CPA 0.5 μM): no change of beta cell numbers
- concentration giving maximal inhibition / prevention of DEX-stimulated increase of beta cell numbers [2]: 0.5 µM

Molecule: Cc1ccc(NCCCc2ccccc2)c(N)c1 [JSH-23]
- effect on ICAM1 mRNA levels [3]: suppressing
- effect on 6MP induced DNA-synthesis and increase in cell numbers [1]: does not inhibit

Molecule: CC#C[C@]1(O)CC[C@H]2[C@@H]3CCC4=CC(=O)CCC4=C3[C@@H](c3ccc(N(C)C)cc3)C[C@@]21C [MIF, mifepristone]
- CDK4 mRNA level (ΔΔCt values relative to basal vehicle control) [3, 4]: 1.3 ± 0.2
- CXCL11 mRNA level (ΔΔCt values relative to basal vehicle control) [3, 4]: 1.5 ± 0.6
- Cyclin B1 mRNA level (ΔΔCt values relative to basal vehicle control) [3, 4]: 1.0 ± 0.3
- Cyclin B2 mRNA level (ΔΔCt values relative to basal vehicle control) [3, 4]: 0.6 ± 0.1^1
- CyclinD1 mRNA level (ΔΔCt values relative to basal vehicle control) [3, 4]: 1.0 ± 0.1
- DLK1 mRNA level (ΔΔCt values relative to basal vehicle control) [3, 4]: 0.9 ± 0.2
- FKBP4 mRNA level (ΔΔCt values relative to basal vehicle control) [3, 4]: 0.7 ± 0.2
- FKBP5 mRNA level (ΔΔCt values relative to basal vehicle control) [3, 4]: 0.7 ± 0.2
- MKP1 mRNA level (ΔΔCt values relative to basal vehicle control) [3, 4]: 1.3 ± 0.0
- MafA mRNA level (ΔΔCt values relative to basal vehicle control) [3, 4]: 1.1 ± 0.3
- MafB mRNA level (ΔΔCt values relative to basal vehicle control) [3, 4]: 0.6 ± 0.2
- NPY mRNA level (ΔΔCt values relative to basal vehicle control) [3, 4]: 0.8 ± 0.0
- NR3C1 mRNA level (ΔΔCt values relative to basal vehicle control) [3, 4]: 1.1 ± 0.1
- Pdx1 mRNA level (ΔΔCt values relative to basal vehicle control) [3, 4]: 1.1 ± 0.3
- effect on 6MP/DEX-stimulated increase of cell numbers ([2]; MIF 1 μM): inhibited
- Number of Living Cells on Day 15 (% of Day 1) [2, 5]: 104 ± 5 % of Day 1
- concentration giving maximal inhibition / prevention of DEX-stimulated increase of beta cell numbers [2]: 0.1 µM

Molecule: CC(=O)S[C@@H]1CC2=CC(=O)CC[C@]2(C)[C@H]2CC[C@@]3(C)[C@@H](CC[C@@]34CCC(=O)O4)[C@H]12 [Spironolactone, spironolactone]
- Number of Living Cells on Day 15 (% of Day 1) [2, 5]: 105 ± 5 % of Day 1

Molecule: O=C(CO)[C@@H](O)[C@@H](O)[C@H](O)[C@H](O)CO [mannoheptulose]
- baseline and GC-induced proliferation of beta cells ([1]; competitive inhibition of GK, data not shown): reduces

B1: GDF11: secretory factor added to beta cell culture (10 nM) (protein, UniProt O95390 299-407, looked up)
Growth/differentiation factor …: NLGLDCDEHSSESRCCRYPLTVDFEAFGWDWIIAPKRYKANYCSGQCEYMFMQKYPHTHLVQQANPRGSAGPCCTPTKMSPINMLYFNDKQQIIYGKIPGMVVDRCGCS
- effect on cell numbers in combination with 6MP ([2]; 15 days, 6MP 1 μM, GDF11 10 nM, TRH 5 nM): suppressed proliferation
- effect on cell numbers under basal conditions ([2]; 15 days, DLK1 0.5 μM, GDF11 10 nM, TRH 5 nM): modest increase of cell numbers

— patent US20160274087A1, “SCREENING ASSAY FOR AGENTS THAT INFLUENCE BETA CELL NUMBER AND/OR PHENOTYPE” (VRIJE UNIVERSITEIT BRUSSEL, priority 2013, published 2016)
